Results taken from US10213449B2, “Compositions and methods for treating medulloblastoma” (The Board of Trustees of the Leland Stanford Junior …, priority 2016, dated 2019).
Entries after “also recorded” stand apart in the source; their conditions may differ.

Legend:
[1] = test system: Hh signaling in Sufu−/− mouse embryonic fibroblasts; experiment: RT-qPCR of Gli1 in Sufu−/− MEFs (epistasis study); format: cell-based
Excerpt: Epistasis studies were next performed to determine where in the hedgehog pathway CK2 acts. The effect of TBB was examined: (i) in NIH 3T3s stimulated with SAG, a SMO agonist, (ii) in Sufu−/− mouse embryonic fibroblasts (MEF), and (iii) in NIH 3T3 cells overexpressing GLI2 (FIG. 3d-3f).
Sufu^−/− MEFs (conditional deletion of exons 4-8) were kindly provided by Pao-Tien Chang (UCSF). SAG (S7779), GDC-0449 (Vismodegib, S1082) and CX-4945 (Silmitasertib, S2248) was purchased from SelleckChem.com. TBB was purchased from EMD (218697). Shh-N conditional medium was made using a HEK 293 cell line that stably secretes ShhN as previously described. Myc-GL12-DN (17649, pCS2-MT-GLI2-deltaN) plasmid was purchased from Addgene (Cambridge, Mass., USA). […]
NIH3T3s or SUFU−/− MEFs were plated in 6 well plates at 400,000 cells/well in 10% FBS media constituted of DMEM (Invitrogen11960-069) supplemented with 10% FBS (Hyclone Labs SH30070.02), pen/strep (Life Technologies 15140-122), sodium pyruvate (Invitrogen 11360-070) and glutamax (Invitrogen 35050-061). […] RNA was quantified on a nanodrop spectrophotometer (nanoddrop technologies ND-2000C). Transcript quantification was performed using a TaqMan RNA-to-Ct 1-Step Kit (Life technologies, 4392656) and the Applied Biosystems 7500 RT-PCR system as per the manufacturer's instructions. […]

[2] = test system: Brd4 occupancy at Gli1 and Gli2 promoters; experiment: Brd4 ChIP-qPCR in NIH3T3s stimulated with SHH; format: cell-based, mouse
Description: It was therefore investigated whether CK2 regulates Brd4-mediated transactivation of the Gli promoters. Chromatin immunoprecipitation (ChIP) was performed in NIH3T3s stimulated with SHH using anti-Brd4 antibodies, followed by quantitative PCR (qPCR) of regions flanking the transcription start sites within the Gli1 and Gli2 promoters.
Wildtype CD1-Elite (Charles River strain 482) P7 mice were randomized to control or treatment groups then given two injections of DMSO (control) or TBB (30 mg/kg) q12h×2. Mice were sacrificed and GNPs were isolated as described in “GNP isolation”. Chomatin immunoprecipitation was performed as previously described. GNPs were cross-linked in 1% formaldehyde for 10 minutes at RT then fixation was stopped by adding 2.5M glycine for 10 minutes. Samples were washed and stored at −80 until all samples were collected. Crosslinked cells were later thawed on ice, incubated in chilled RIPA for 10 min and sonicated 7×15 min. To prepare blocking beads, 60 uL/sample of protein G beads (Roche 11719416001) were incubated with 5% BSA on a rocker at 4 degrees for at least 1 h. […] ChIP and input DNA was quantified using Qubit DS DNA HS assay as per manufacturer's protocol (ThermoFisher Q32851). […] Library was quantified via Qubit DS DNA HS assay and library quality was determined using an Agilent 2100 Bioanalyzer. […]

With `Brc1c(Br)c(Br)c2[nH]nnc2c1Br` [TBB, 4,5,6,7-tetrabromo-2H-benzotriazole] the “Gli1 mRNA / Gli transcript levels” value [1] was “substantially decreased; also recorded: dose dependent loss of Gli1 expression”, the “Brd4 occupancy at Gli1 promoter” value [2] was “blocked” and the “Brd4 occupancy at Gli2 promoter” value [2] was “blocked”.
